The values below come from patent US12516022B2, “Derivatives of aryl hydrocarbon receptor agonists” (AZORA THERAPEUTICS, INC., priority 2021, dated 2026).

A short description of series [1]: Time course of conversion to indirubin in FaSSIF at 37° C.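 On all read-outs here: test compound, about 1-3 mg in 5 mL FaSSIF, sampled and analysed by UPLC-MS with PDA UV (210-400 nm), QDa mass and evaporative light scattering detection.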 The following applies: for Conversion to indirubin: over a 24 hour period. It is filed as physicochemical.
A short description of series [2]: Time course of conversion to indirubin in FaSSGF at 37° C.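 On all read-outs here: compound incubated in fasted state simulated gastric fluid, species in samples quantified by UPLC-MS with UV (210–400 nm) and ELS detection.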 As to conditions: FaSSGF (Example 4; table title prints FaSSIF) 37° C.; for Conversion to indirubin: over a 24 hour period. It is filed as physicochemical.

As to `O=C1/C(=C2/C(=O)N(CN3CCCC3)c3ccccc32)Nc2ccccc21` [drawing 255], the indirubin was found to be 100% in series [1] (FaSSIF 37° C. 24 h); 100% in series [1] (FaSSIF 37° C., 15 min); 100% in series [1] (FaSSIF 37° C., 30 min); 100% in series [1] (FaSSIF 37° C., 1 h); 100% in series [1] (FaSSIF 37° C., 2 h). For the same compound, the indirubin methylene alcohol in series [1] (FaSSIF 37° C. 24 h) was 0%; in series [1] (FaSSIF 37° C., 15 min), 0%; in series [1] (FaSSIF 37° C., 30 min) it was 0%; in series [1] (FaSSIF 37° C., 1 h), 0%; in series [1] (FaSSIF 37° C., 2 h), 0%. Besides, the “starting material (prodrug compound)” value in series [1] (FaSSIF 37° C. 24 h) is reported as 0%; in series [1] (FaSSIF 37° C., 15 min), 0%; in series [1] (FaSSIF 37° C., 30 min), 0%; in series [1] (FaSSIF 37° C., 1 h), 0%; in series [1] (FaSSIF 37° C., 2 h), 0%. Further, the Conversion to indirubin in series [1] (FaSSIF 37° C.) is reported as 80-100%.
Turning to `O=C1/C(=C2/C(=O)N(CN3CCC3)c3ccccc32)Nc2ccccc21` [drawing 266], the indirubin in series [1] (FaSSIF 37° C. 24 h) was 20%; in series [1] (FaSSIF 37° C., 15 min), 9%; in series [1] (FaSSIF 37° C., 30 min), 8%; in series [1] (FaSSIF 37° C., 1 h), 10%; in series [1] (FaSSIF 37° C., 2 h), 13%. The indirubin methylene alcohol in series [1] (FaSSIF 37° C. 24 h) is 7%; in series [1] (FaSSIF 37° C., 15 min), 5%; in series [1] (FaSSIF 37° C., 30 min), 5%; in series [1] (FaSSIF 37° C., 1 h) it was 5%; in series [1] (FaSSIF 37° C., 2 h) it was 4%. The “starting material (prodrug compound)” value came to 62% in series [1] (FaSSIF 37° C. 24 h); 72% in series [1] (FaSSIF 37° C., 15 min); 79% in series [1] (FaSSIF 37° C., 30 min); 80% in series [1] (FaSSIF 37° C., 1 h); 75% in series [1] (FaSSIF 37° C., 2 h). For the same compound, in series [1] (FaSSIF 37° C.), the Conversion to indirubin is given as 0-20%.
As to `CCN(CC)CN1C(=O)/C(=C2\Nc3ccccc3C2=O)c2ccccc21` [drawing 252], the indirubin in series [1] (FaSSIF 37° C. 24 h) is 100%; in series [1] (FaSSIF 37° C., 15 min), 100%; in series [1] (FaSSIF 37° C., 30 min), 100%; in series [1] (FaSSIF 37° C., 1 h), 100%; in series [1] (FaSSIF 37° C., 2 h), 100%. Moreover, the indirubin methylene alcohol in series [1] (FaSSIF 37° C. 24 h) is 0%; in series [1] (FaSSIF 37° C., 15 min), 0%; in series [1] (FaSSIF 37° C., 30 min), 0%; in series [1] (FaSSIF 37° C., 1 h) it was 0%; in series [1] (FaSSIF 37° C., 2 h), 0%. The “starting material (prodrug compound)” value in series [1] (FaSSIF 37° C. 24 h) came out at 0%; in series [1] (FaSSIF 37° C., 15 min) it was 0%; in series [1] (FaSSIF 37° C., 30 min), 0%; in series [1] (FaSSIF 37° C., 1 h), 0%; in series [1] (FaSSIF 37° C., 2 h), 0%. Also, in series [1] (FaSSIF 37° C.), the Conversion to indirubin is listed as 80-100%.
In the case of `CN(C)CCN(C)CN1C(=O)/C(=C2\Nc3ccccc3C2=O)c2ccccc21` [drawing 253], the indirubin is reported as 87% in series [1] (FaSSIF 37° C. 24 h); 90% in series [1] (FaSSIF 37° C., 15 min); 90% in series [1] (FaSSIF 37° C., 30 min); 89% in series [1] (FaSSIF 37° C., 1 h); 85% in series [1] (FaSSIF 37° C., 2 h). For the same compound, the indirubin methylene alcohol in series [1] (FaSSIF 37° C. 24 h) is 7%; in series [1] (FaSSIF 37° C., 15 min) it was 7%; in series [1] (FaSSIF 37° C., 30 min), 7%; in series [1] (FaSSIF 37° C., 1 h), 6%; in series [1] (FaSSIF 37° C., 2 h), 6%. Moreover, the “starting material (prodrug compound)” value was determined as 0% in series [1] (FaSSIF 37° C. 24 h); 0% in series [1] (FaSSIF 37° C., 15 min); 0% in series [1] (FaSSIF 37° C., 30 min); 0% in series [1] (FaSSIF 37° C., 1 h); 0% in series [1] (FaSSIF 37° C., 2 h). Besides, the Conversion to indirubin in series [1] (FaSSIF 37° C.) was 80-100%.
In the case of `O=C1/C(=C2/C(=O)N(C(=O)NC3CCOCC3)c3ccccc32)Nc2ccccc21` [drawing 263], the indirubin in series [1] (FaSSIF 37° C. 24 h) is 6%; in series [1] (FaSSIF 37° C., 15 min) it was 8%; in series [1] (FaSSIF 37° C., 30 min), 5%; in series [1] (FaSSIF 37° C., 1 h), 5%; in series [1] (FaSSIF 37° C., 2 h) it was 10%. The indirubin methylene alcohol in series [1] (FaSSIF 37° C. 24 h) is 0%; in series [1] (FaSSIF 37° C., 15 min), 0%; in series [1] (FaSSIF 37° C., 30 min) it was 0%; in series [1] (FaSSIF 37° C., 1 h), 0%; in series [1] (FaSSIF 37° C., 2 h), 1%. The “starting material (prodrug compound)” value amounted to 55% in series [1] (FaSSIF 37° C. 24 h); 50% in series [1] (FaSSIF 37° C., 15 min); 44% in series [1] (FaSSIF 37° C., 30 min); 33% in series [1] (FaSSIF 37° C., 1 h); 50% in series [1] (FaSSIF 37° C., 2 h). The Conversion to indirubin in series [1] (FaSSIF 37° C.) is reported as 0-20%.
On to `CN(C)C1CCN(CN2C(=O)/C(=C3\Nc4ccccc4C3=O)c3ccccc32)CC1` [drawing 256], for which the indirubin turned out to be 72% in series [1] (FaSSIF 37° C. 24 h); 61% in series [1] (FaSSIF 37° C., 15 min); 62% in series [1] (FaSSIF 37° C., 30 min); 58% in series [1] (FaSSIF 37° C., 1 h); 70% in series [1] (FaSSIF 37° C., 2 h). Also, the indirubin methylene alcohol in series [1] (FaSSIF 37° C. 24 h) is on record as 6%; in series [1] (FaSSIF 37° C., 15 min), 5%; in series [1] (FaSSIF 37° C., 30 min), 5%; in series [1] (FaSSIF 37° C., 1 h) it was 5%; in series [1] (FaSSIF 37° C., 2 h) it was 7%. The “starting material (prodrug compound)” value was 0% in series [1] (FaSSIF 37° C. 24 h); 30% in series [1] (FaSSIF 37° C., 15 min); 31% in series [1] (FaSSIF 37° C., 30 min); 32% in series [1] (FaSSIF 37° C., 1 h); 22% in series [1] (FaSSIF 37° C., 2 h). Further, the Conversion to indirubin in series [1] (FaSSIF 37° C.) is recorded as 60-80%.
`O=C1/C(=C2/C(=O)N(CO)c3ccccc32)Nc2ccccc21` [drawing 259]: the indirubin in series [1] (FaSSIF 37° C. 24 h) is given as 17%; in series [1] (FaSSIF 37° C., 15 min), 12%; in series [1] (FaSSIF 37° C., 30 min), 15%; in series [1] (FaSSIF 37° C., 1 h), 14%; in series [1] (FaSSIF 37° C., 2 h), 17%. The “starting material (prodrug compound)” value in series [1] (FaSSIF 37° C. 24 h) stood at 73%; in series [1] (FaSSIF 37° C., 15 min), 81%; in series [1] (FaSSIF 37° C., 30 min), 82%; in series [1] (FaSSIF 37° C., 1 h), 80%; in series [1] (FaSSIF 37° C., 2 h), 79%. For the same compound, the Conversion to indirubin in series [1] (FaSSIF 37° C.) is 20-40%.
For `O=C1/C(=C2/C(=O)N(CN3CCC(F)(F)CC3)c3ccccc32)Nc2ccccc21` [drawing 260], the indirubin is 40% in series [1] (FaSSIF 37° C. 24 h); 45% in series [1] (FaSSIF 37° C., 15 min); 29% in series [1] (FaSSIF 37° C., 30 min); 18% in series [1] (FaSSIF 37° C., 1 h); 49% in series [1] (FaSSIF 37° C., 2 h). Besides, the indirubin methylene alcohol worked out at 0% in series [1] (FaSSIF 37° C. 24 h); 0% in series [1] (FaSSIF 37° C., 15 min); 0% in series [1] (FaSSIF 37° C., 30 min); 0% in series [1] (FaSSIF 37° C., 1 h); 0% in series [1] (FaSSIF 37° C., 2 h). Also, the “starting material (prodrug compound)” value in series [1] (FaSSIF 37° C. 24 h) amounted to 52%; in series [1] (FaSSIF 37° C., 15 min) it was 54%; in series [1] (FaSSIF 37° C., 30 min), 39%; in series [1] (FaSSIF 37° C., 1 h), 37%; in series [1] (FaSSIF 37° C., 2 h) it was 51%. Besides, the Conversion to indirubin in series [1] (FaSSIF 37° C.) is listed as 20-40%.
`O=C1/C(=C2/C(=O)N(CN3CCCCC3)c3ccccc32)Nc2ccccc21` [drawing 254]: in series [1] (FaSSIF 37° C.), the Conversion to indirubin is recorded as 80-100%.
Regarding `O=C1/C(=C2/C(=O)N(CO)c3ccccc32)Nc2ccccc21` [drawing 274], the indirubin in series [2] (15 min) was 8%; in series [2] (30 min) it was 18%; in series [2] (1 h), 12%; in series [2] (2 h), 18%; in series [2] (24 h), 22%. In addition, the indirubin methylene alcohol in series [2] (15 min) was 92%; in series [2] (30 min), 82%; in series [2] (1 h), 88%; in series [2] (2 h) it was 82%; in series [2] (24 h), 78%. The “starting material (prodrug compound)” value in series [2] (15 min), in series [2] (30 min), in series [2] (1 h), in series [2] (2 h) and in series [2] (24 h) was 0% each time. The Conversion to indirubin in series [2] was 20-40%.
Take `CN1CCN(CN2C(=O)/C(=C3\Nc4ccccc4C3=O)c3ccccc32)CC1` [drawing 273]: the indirubin in series [2] (15 min) was 23%; in series [2] (30 min), 18%; in series [2] (1 h), 24%; in series [2] (2 h), 24%; in series [2] (24 h), 41%. For the same compound, the indirubin methylene alcohol in series [2] (15 min), in series [2] (30 min), in series [2] (1 h), in series [2] (2 h) and in series [2] (24 h) was 0% throughout. Further, the “starting material (prodrug compound)” value in series [2] (15 min) turned out to be 75%; in series [2] (30 min), 76%; in series [2] (1 h), 74%; in series [2] (2 h) it was 76%; in series [2] (24 h), 58%. Also, the Conversion to indirubin in series [2] is 40-60%.
`O=C1/C(=C2/C(=O)N(COS(=O)(=O)O)c3ccccc32)Nc2ccccc21` [drawing 277]: the indirubin in series [2] (15 min), in series [2] (30 min), in series [2] (2 h) and in series [2] (24 h) was 0% each time. Besides, the indirubin methylene alcohol amounted to 15% in series [2] (15 min), 23% in series [2] (30 min), 22% in series [2] (2 h) and 8% in series [2] (24 h). In addition, the “starting material (prodrug compound)” value came out at 83% in series [2] (15 min), 67% in series [2] (30 min), 72% in series [2] (2 h) and 26% in series [2] (24 h). Also, the Conversion to indirubin in series [2] was 0-20%.
